# Measurements from US20240247015A1, “PHOSPHORUS DERIVATIVES AS NOVEL SOS1 INHIBITORS” (BAYER AKTIENGESELLSCHAFT, priority 2021, published 2024).
# Target: interaction of human SOS1 (SOS1) with human K-RasG12C (Homo sapiens (Human), UniProt Q07889)
# Assay: Biochemical assay: hK-RasG12C interaction assay with hSOS1 (HTRF)
# Format: binding
# Settings: GST-hK-RasG12C with His-hSOS1, 60 min incubation at 20° C., mean, read-out: K-RasG12C - SOS interaction assay IC50 (mean)
# How it was run: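 Compounds, duplicates at 11 concentrations from 0.073 nM to 20 µM, were preincubated 2 min with 10 nM GST-hK-RasG12C, then 20 nM His-hSOS1 was added, all at 20 °C. After 60 min, 665/620 nm HTRF ratio normalized to DMSO and SOS1-free controls; IC50 by 4-parameter fit.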
# Chain of interaction of human SOS1 (SOS1) with human K-RasG12C (Q07889 564-1049 limits assumed): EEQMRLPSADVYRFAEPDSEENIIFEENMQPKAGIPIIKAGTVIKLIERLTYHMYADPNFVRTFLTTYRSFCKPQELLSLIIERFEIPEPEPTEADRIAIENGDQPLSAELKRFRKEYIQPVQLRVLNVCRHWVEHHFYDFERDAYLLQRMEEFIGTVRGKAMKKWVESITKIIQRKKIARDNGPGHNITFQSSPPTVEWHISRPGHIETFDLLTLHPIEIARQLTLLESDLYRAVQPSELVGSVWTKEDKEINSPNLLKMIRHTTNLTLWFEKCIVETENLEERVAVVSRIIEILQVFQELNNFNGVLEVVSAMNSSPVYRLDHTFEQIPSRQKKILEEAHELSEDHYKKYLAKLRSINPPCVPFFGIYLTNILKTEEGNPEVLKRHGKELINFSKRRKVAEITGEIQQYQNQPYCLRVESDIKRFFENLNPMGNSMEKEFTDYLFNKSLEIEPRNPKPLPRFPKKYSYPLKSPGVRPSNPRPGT
row,SMILES,IC50
1,"Cc1nc(N[C@H](C)c2cccc(C(F)(F)C(C)(C)O)c2F)c2cc(P(C)(C)=O)cnc2n1 [Example 14, 1-{3-[(1R)-1-{[6-(dimethylphosphoryl)-2-methylpyrido[2,3-d]pyrimidin-4-yl]amino}ethyl]-2-fluorophenyl}-1,1-difluoro-2-methylpropan-2-ol]",0.00978 µM
2,"Cc1nc(N[C@H](C)c2cccc(C(F)(F)F)c2C)c2cc(P(C)(C)=O)c(C)nc2n1 [Example 17, 6-(dimethylphosphoryl)-2,7-dimethyl-N-{(1R)-1-[2-methyl-3-(trifluoromethyl)phenyl]ethyl}pyrido[2,3-d]pyrimidin-4-amine]",0.0106 µM
3,CC(=O)N(C)CC(F)(F)c1cccc([C@@H](C)Nc2nc(C)nc3cnc(P4(=O)CCN(C(C)=O)CC4)cc23)c1F [Example 201],0.00581 µM
4,"Cc1nc(N[C@H](C)c2cccc(C(F)(F)C(=O)N(C)C)c2F)c2cc(P(C)(C)=O)ncc2n1 [Example 50, 2-{3-[(1R)-1-{[6-(dimethylphosphoryl)-2-methylpyrido[3,4-d]pyrimidin-4-yl]amino}ethyl]-2-fluorophenyl}-2,2-difluoro-N,N-dimethylacetamide]",0.156 µM
5,"Cc1nc(N[C@H](C)c2cccc(C(F)(F)F)c2C)c2cc(P3(=O)CCN(C(C)C)CC3)ncc2n1 [Example 53, 4-[2-methyl-4-({(1R)-1-[2-methyl-3-(trifluoromethyl)phenyl]ethyl}amino)pyrido[3,4-d]pyrimidin-6-yl]-1-(propan-2-yl)-1,4lambda^5-azaphosphinan-4-one]",0.0654 µM
6,"COC(C)(C)C(F)(F)c1cccc([C@@H](C)Nc2nc(C)nc3cnc(P(C)(C)=O)cc23)c1F [Example 121, N-{(1R)-1-[3-(1,1-difluoro-2-methoxy-2-methylpropyl)-2-fluorophenyl]ethyl}-6-(dimethylphosphoryl)-2-methylpyrido[3,4-d]pyrimidin-4-amine]",0.0871 µM
7,"Cc1nc(N[C@H](C)c2cccc(C(F)F)c2F)c2cc(P(=O)(C(C)C)C(C)C)c(C)nc2n1 [Example 129, N-{(1R)-1-[3-(difluoromethyl)-2-fluorophenyl]ethyl}-6-[di(propan-2-yl)phosphoryl]-2,7-dimethylpyrido[2,3-d]pyrimidin-4-amine]",0.132 µM
8,"CCc1nc(P(C)(C)=O)cc2c(N[C@H](C)c3cccc(C(F)(F)C(O)CC)c3F)nc(C)nc12 (mixture of isomers) [Example 38, (2RS)-1-{3-[(1R)-1-{[6-(dimethylphosphoryl)-8-ethyl-2-methylpyrido[3,4-d]pyrimidin-4-yl]amino}ethyl]-2-fluorophenyl}-1,1-difluorobutan-2-ol]",0.0107 µM
9,"Cc1nc(N[C@H](C)c2cccc(C(F)F)c2F)c2cc(P(C)(=O)C(C)C)ncc2n1 (single isomer, unassigned) [Example 115]",0.0803 µM
10,"Cc1nc(N[C@H](C)c2cccc(C(F)F)c2F)c2cc(P3(=O)CCCC3)c(C)nc2n1 [Example 126, 1-[4-{{(1R)-1-[3-(difluoromethyl)-2-fluorophenyl]ethyl}amino)-2,7-dimethylpyrido[2,3-d]pyrimidin-6-yl]-1lambda^5-phospholan-1-one]",0.00924 µM
11,"Cc1nc(N[C@H](C)c2cccc(C(F)F)c2F)c2cc(P3(=O)CCN(C)CC3)ncc2n1 [Example 52, 4-[4-({(1R)-1-[3-(difluoromethyl)-2-fluorophenyl]ethyl}amino)-2-methylpyrido[3,4-d]pyrimidin-6-yl]-1-methyl-1,4lambda^5-azaphosphinan-4-one]",0.0355 µM
12,"Cc1nc(N[C@H](C)c2cccc(C(F)(F)C(=O)C(C)C)c2F)c2cc(P(C)(C)=O)ncc2n1 [Example 109, 1-{3-[(1R)-1-{[6-(dimethylphosphoryl)-2-methylpyrido[3,4-d]pyrimidin-4-yl]amino}ethyl]-2-fluorophenyl}-1,1-difluoro-3-methylbutan-2-one]",0.0333 µM
13,"Cc1nc(N[C@H](C)c2cccc(C(F)(F)C(C)O)c2F)c2cc(P(C)(=O)C(C)C)ncc2n1 (single isomer, unassigned) [Example 84, (2R*)-1,1-difluoro-1-{2-fluoro-3-[(1R)-1-({2-methyl-6-[methyl(propan-2-yl)phosphoryl]pyrido[3,4-d]pyrimidin-4-yl}amino)ethyl]phenyl}propan-2-ol]",0.0241 µM
14,"Cc1nc(N[C@H](C)c2cccc(C(F)(F)C(C)(C)O)c2F)c2cc(P(=O)(C(C)C)C(C)C)cnc2n1 [Example 15, 1-{3-[(1R)-1-({6-[di(propan-2-yl)phosphoryl]-2-methylpyrido[2,3-d]pyrimidin-4-yl}amino)ethyl]-2-fluorophenyl}-1,1-difluoro-2-methylpropan-2-ol]",0.0471 µM
15,CC(=O)N1CCP(=O)(c2cc3c(N[C@H](C)c4cccc(C(F)(F)F)c4C)nc(C(F)F)nc3cn2)CC1 [Example 195],0.00656 µM
16,"Cc1nc(N[C@H](C)c2cccc(C(F)(F)F)c2C)c2cc(P(C)(C)=O)c(C(F)(F)F)nc2n1 [Example 22, 6-(dimethylphosphoryl)-2-methyl-N-{(1R)-1-[2-methyl-3-(trifluoromethyl)phenyl]ethyl}-7-(trifluoromethyl)pyrido[2,3-d]pyrimidin-4-amine]",0.0187 µM
17,"Cc1nc(N[C@H](C)c2cccc(C(F)(F)CO)c2F)c2cc(P3(=O)CC=CC3)ncc2n1 [Example 59, 1-[4-{{(1R)-1-[3-(1,1-difluoro-2-hydroxyethyl)-2-fluorophenyl]ethyl}amino)-2-methylpyrido[3,4-d]pyrimidin-6-yl]-2,5-dihydro-1H-1lambda^5-phosphol-1-one]",0.00706 µM
18,"Cc1nc(N[C@H](C)c2cccc(C(F)(F)F)c2C)c2cc(P3(=O)CCN(C=O)CC3)ncc2n1 [Example 31, 4-[2-methyl-4-({(1R)-1-[2-methyl-3-(trifluoromethyl)phenyl]ethyl}amino)pyrido[3,4-d]pyrimidin-6-yl]-4-oxo-1,4lambda^5-azaphosphinane-1-carbaldehyde]",0.00637 µM
19,Cc1nc(N[C@H](C)c2cccc(C(F)(F)F)c2C)c2cc(P3(=O)CCN(C(=O)NCC(F)F)CC3)ncc2n1 [Example 185],0.00386 µM
20,"Cc1nc(N[C@H](C)c2cccc(C(F)(F)F)c2C)c2cc(P3(=O)CCN(S(C)(=O)=O)CC3)ncc2n1 [Example 41, 1-(methanesulfonyl)-4-[2-methyl-4-({(1R)-1-[2-methyl-3-(trifluoromethyl)phenyl]ethyl}amino)pyrido[3,4-d]pyrimidin-6-yl]-1,4lambda^5-azaphosphinan-4-one]",0.174 µM
21,"Cc1nc(N[C@H](C)c2cccc(C(F)(F)C(O)C(C)C)c2F)c2cc(P(C)(C)=O)ncc2n1 (single isomer, unassigned) [Example 66, (2R*)-1-{3-[(1R)-1-{[6-(dimethylphosphoryl)-2-methylpyrido[3,4-d]pyrimidin-4-yl]amino}ethyl]-2-fluorophenyl}-1,1-difluoro-3-methylbutan-2-ol]",0.0251 µM
22,"CCP(=O)(CC)c1cc2c(N[C@H](C)c3cccc(C(F)(F)C(C)O)c3F)nc(C)nc2cn1 (stereo in doubt) [Example 90, (2R*)-1-{3-[(1R)-1-{[6-(diethylphosphoryl)-2-methylpyrido[3,4-d]pyrimidin-4-yl]amino}ethyl]-2-fluorophenyl}-1,1-difluoropropan-2-ol]",0.0266 µM
23,CCOC(=O)N1CCP(=O)(c2cc3c(N[C@H](C)c4cccc(C(F)F)c4F)nc(C)nc3cn2)CC1 [Example 187],0.012 µM
24,"Cc1nc(N[C@H](C)c2cccc(C(F)(F)C(C)(C)O)c2F)c2cc(P(=O)(C(C)C)C(C)C)c(C)nc2n1 [Example 21, 1-{3-[(1R)-1-({6-[di(propan-2-yl)phosphoryl]-2,7-dimethylpyrido[2,3-d]pyrimidin-4-yl}amino)ethyl]-2-fluorophenyl}-1,1-difluoro-2-methylpropan-2-ol]",0.121 µM
25,"Cc1nc(N[C@H](C)c2cccc(C(F)(F)C(C)O)c2F)c2cc(P3(=O)CCCC3)ncc2n1 (single isomer, unassigned) [Example 111, 1-(4-{[(1R)-1-{3-[(2R*)-1,1-difluoro-2-hydroxypropyl]-2-fluorophenyl}ethyl]amino}-2-methylpyrido[3,4-d]pyrimidin-6-yl)-1lambda^5-phospholan-1-one]",0.0215 µM
26,"CCP(=O)(CC)c1cc2c(N[C@H](C)c3cccc(C(F)(F)F)c3C)nc(C)nc2cn1 [Example 96, 6-(diethylphosphoryl)-2-methyl-N-{(1R)-1-[2-methyl-3-(trifluoromethyl)phenyl]ethyl}pyrido[3,4-d]pyrimidin-4-amine]",0.0502 µM
27,"CC(=O)N1CCP(=O)(c2cc3c(N[C@H](C)c4cccc(C(F)(F)F)c4F)nc(C)nc3cn2)CC1 [Example 142, 1-acetyl-4-[4-{{(1R)-1-[2-fluoro-3-(trifluoromethyl)phenyl]ethyl}amino)-2-methylpyrido[3,4-d]pyrimidin-6-yl]-1,4lambda^5-azaphosphinan-4-one]",0.0063 µM
28,"Cc1nc(N[C@H](C)c2cccc(C(F)(F)C(C)O)c2F)c2cc(P(C)(=O)C(C)C)ncc2n1 (single isomer, unassigned) [Example 82, (2R*)-1,1-difluoro-1-{2-fluoro-3-[(1R)-1-({2-methyl-6-[methyl(propan-2-yl)phosphoryl]pyrido[3,4-d]pyrimidin-4-yl}amino)ethyl]phenyl}propan-2-ol]",0.0245 µM
29,"Cc1nc(N[C@H](C)c2cccc(C(F)F)c2F)c2cc(P(C)(C)=O)c(C(F)(F)F)nc2n1 [Example 125, N-{(1R)-1-[3-(difluoromethyl)-2-fluorophenyl]ethyl}-6-(dimethylphosphoryl)-2-methyl-7-(trifluoromethyl)pyrido[2,3-d]pyrimidin-4-amine]",0.0443 µM
30,"CCNC(=O)C(F)(F)c1cccc([C@@H](C)Nc2nc(C)nc3cnc(P(C)(C)=O)cc23)c1F [Example 49, 2-{3-[(1R)-1-{[6-(dimethylphosphoryl)-2-methylpyrido[3,4-d]pyrimidin-4-yl]amino}ethyl]-2-fluorophenyl}-N-ethyl-2,2-difluoroacetamide]",0.0875 µM
